Assay results published in PubChem BioAssay AID1259407 (Chemical Carcinogenesis Research Information System (CCRIS), 2018).
Active and inactive are the calls of the source. The rule behind the calls is not given here.

System: CCRIS mutagenicity, Ames/micronucleus/aberration tests
Experiment: CCRIS mutagenicity studies
[1] = Test System: AMES SALMONELLA TYPHIMURIUM, Strain/Indicator: TA98, Metabolic Activation: NONE, Method: STANDARD PLATE
[2] = Test System: AMES SALMONELLA TYPHIMURIUM, Strain/Indicator: TA100, Metabolic Activation: NONE, Method: STANDARD PLATE
[3] = Test System: AMES SALMONELLA TYPHIMURIUM, Strain/Indicator: TA98, Metabolic Activation: NONE, Method: PREINCUBATION
[4] = Test System: AMES SALMONELLA TYPHIMURIUM, Strain/Indicator: TA100, Metabolic Activation: NONE, Method: PREINCUBATION
[5] = Test System: AMES SALMONELLA TYPHIMURIUM, Strain/Indicator: TA102, Metabolic Activation: NONE, Method: PREINCUBATION

Measured: mutagenic call

O=[N+]([O-])c1c2ccccc2cc2c1ccc1ccccc12
inactive: [1] inactive; negative | [2] inactive; negative

Oc1ccc(Cc2ccccc2O)cc1
inactive: [3] inactive; negative | Test System: AMES SALMONELLA TYPHIMURIUM, Strain/Indicator: TA98, Metabolic Activation: RAT LIVER S-9, PHENOBARBITAL AND BETA-NAPHTHOFLAVONE, Method: PREINCUBATION inactive; negative | [4] inactive; negative | Test System: AMES SALMONELLA TYPHIMURIUM, Strain/Indicator: TA100, Metabolic Activation: RAT LIVER S-9, PHENOBARBITAL AND BETA-NAPHTHOFLAVONE, Method: PREINCUBATION inactive; negative | Test System: AMES SALMONELLA TYPHIMURIUM, Strain/Indicator: TA1535, Metabolic Activation: NONE, Method: PREINCUBATION inactive; negative | Test System: AMES SALMONELLA TYPHIMURIUM, Strain/Indicator: TA1535, Metabolic Activation: RAT LIVER S-9, PHENOBARBITAL AND BETA-NAPHTHOFLAVONE, Method: PREINCUBATION inactive; negative | Test System: AMES SALMONELLA TYPHIMURIUM, Strain/Indicator: TA1537, Metabolic Activation: NONE, Method: PREINCUBATION inactive; negative | Test System: AMES SALMONELLA TYPHIMURIUM, Strain/Indicator: TA1537, Metabolic Activation: RAT LIVER S-9, PHENOBARBITAL AND BETA-NAPHTHOFLAVONE, Method: PREINCUBATION inactive; negative | Test System: E.COLI, Strain/Indicator: WP2UVRA/PKM101, Metabolic Activation: NONE, Method: PREINCUBATION inactive; negative | Test System: E.COLI, Strain/Indicator: WP2UVRA/PKM101, Metabolic Activation: RAT LIVER S-9, PHENOBARBITAL AND BETA-NAPHTHOFLAVONE, Method: PREINCUBATION inactive; negative

CC1=CC(=O)C(C(C)C)=CC1=O
active: Test System: AMES SALMONELLA TYPHIMURIUM, Strain/Indicator: TA2637, Metabolic Activation: NONE, Method: PREINCUBATION active; positive
inactive: [3] inactive; negative | Test System: AMES SALMONELLA TYPHIMURIUM, Strain/Indicator: TA98, Metabolic Activation: RAT, LIVER, S-9, PHENOBARBITAL AND 5,6-BENZOFLAVONE, Method: PREINCUBATION inactive; negative | [4] inactive; negative | Test System: AMES SALMONELLA TYPHIMURIUM, Strain/Indicator: TA100, Metabolic Activation: RAT, LIVER, S-9, PHENOBARBITAL AND 5,6-BENZOFLAVONE, Method: PREINCUBATION inactive; negative | [5] inactive; negative | Test System: AMES SALMONELLA TYPHIMURIUM, Strain/Indicator: TA102, Metabolic Activation: RAT, LIVER, S-9, PHENOBARBITAL AND 5,6-BENZOFLAVONE, Method: PREINCUBATION inactive; negative | Test System: AMES SALMONELLA TYPHIMURIUM, Strain/Indicator: TA104, Metabolic Activation: RAT, LIVER, S-9, PHENOBARBITAL AND 5,6-BENZOFLAVONE, Method: PREINCUBATION inactive; negative | Test System: AMES SALMONELLA TYPHIMURIUM, Strain/Indicator: TA2637, Metabolic Activation: RAT, LIVER, S-9, PHENOBARBITAL AND 5,6-BENZOFLAVONE, Method: PREINCUBATION inactive; negative

Cc1c2ccccc2cc2ccc3c(c12)C=CC(=O)C3=O
inactive: Test System: AMES SALMONELLA TYPHIMURIUM, Strain/Indicator: TA97A, Metabolic Activation: NONE, Method: PREINCUBATION inactive; negative | [4] inactive; negative | [5] inactive; negative | Test System: AMES SALMONELLA TYPHIMURIUM, Strain/Indicator: TA104, Metabolic Activation: NONE, Method: PREINCUBATION inactive; negative
active: [3] active; positive

CC(C)(Cl)Cl
inactive: Test System: AMES SALMONELLA TYPHIMURIUM, Strain/Indicator: GSTT1, Metabolic Activation: RAT, LIVER, S-9, AROCLOR 1254, Method: STANDARD PLATE inactive; negative | Test System: AMES SALMONELLA TYPHIMURIUM, Strain/Indicator: RSJ100, Metabolic Activation: NONE, Method: STANDARD PLATE inactive; negative | [1] inactive; negative | Test System: AMES SALMONELLA TYPHIMURIUM, Strain/Indicator: TA98, Metabolic Activation: RAT, LIVER, S-9, AROCLOR 1254, Method: STANDARD PLATE inactive; negative | [2] inactive; negative | Test System: AMES SALMONELLA TYPHIMURIUM, Strain/Indicator: TA100, Metabolic Activation: RAT, LIVER, S-9, AROCLOR 1254, Method: STANDARD PLATE inactive; negative | Test System: AMES SALMONELLA TYPHIMURIUM, Strain/Indicator: TA104, Metabolic Activation: NONE, Method: STANDARD PLATE inactive; negative | Test System: AMES SALMONELLA TYPHIMURIUM, Strain/Indicator: TA104, Metabolic Activation: RAT, LIVER, S-9, AROCLOR 1254, Method: STANDARD PLATE inactive; negative | Test System: AMES SALMONELLA TYPHIMURIUM, Strain/Indicator: TA1535, Metabolic Activation: NONE, Method: STANDARD PLATE inactive; negative | Test System: AMES SALMONELLA TYPHIMURIUM, Strain/Indicator: TA1535, Metabolic Activation: RAT, LIVER, S-9, AROCLOR 1254, Method: STANDARD PLATE inactive; negative

C(=NC1CCCCC1)=NC1CCCCC1
active: End Point: In vivo micronucleus, Test System: Peripheral blood normochromatic erythrocytes, Species: Mouse, Strain/Sex: B6C3F1/ Female, Route: Dermal active; positive (significant increase in the frequency only at 3 mg/kg (p=0.003)) | End Point: In vivo micronucleus, Test System: Peripheral blood normochromatic erythrocytes, Species: Mouse, Strain/Sex: B6C3F1/ Male, Route: Dermal active; positive (results of trend test significant (p=0.003 but increase in frequency o
inactive: End Point: In vivo micronucleus, Test System: Bone marrow polychromatic erythrocytes, Species: Rat, Strain/Sex: F344/N/Male, Route: Intraperitoneal inactive; negative | Test System: Ames Salmonella typhimurium, Strain/Indicator: TA97, Metabolic Activation: Hamster, liver S-9, Aroclor 1254, 10 and 30%, Method: Preincubation inactive; negative | Test System: Ames Salmonella typhimurium, Strain/Indicator: TA97, Metabolic Activation: None, Method: Preincubation inactive; negative | Test System: Ames Salmonella typhimurium, Strain/Indicator: TA97, Metabolic Activation: Rat, liver S-9, Aroclor 1254, 10 and 30%, Method: Preincubation inactive; negative | Test System: Ames Salmonella typhimurium, Strain/Indicator: TA98, Metabolic Activation: Hamster, liver S-9, Aroclor 1254, 10 and 30%, Method: Preincubation inactive; negative | Test System: Ames Salmonella typhimurium, Strain/Indicator: TA98, Metabolic Activation: None, Method: Preincubation inactive; negative | Test System: Ames Salmonella typhimurium, Strain/Indicator: TA98, Metabolic Activation: Rat, liver S-9, Aroclor 1254, 10 and 30%, Method: Preincubation inactive; negative | Test System: Ames Salmonella typhimurium, Strain/Indicator: TA100, Metabolic Activation: Hamster, liver S-9, Aroclor 1254, 10 and 30%, Method: Preincubation inactive; negative | Test System: Ames Salmonella typhimurium, Strain/Indicator: TA100, Metabolic Activation: None, Method: Preincubation inactive; negative | Test System: Ames Salmonella typhimurium, Strain/Indicator: TA100, Metabolic Activation: Rat, liver S-9, Aroclor 1254, 10 and 30%, Method: Preincubation inactive; negative | Test System: Ames Salmonella typhimurium, Strain/Indicator: TA1535, Metabolic Activation: Hamster, liver, S-9, Aroclor 1254, 10 and 30%, Method: Preincubation inactive; negative | Test System: Ames Salmonella typhimurium, Strain/Indicator: TA1535, Metabolic Activation: None, Method: Preincubation inactive; negative | Test System: Ames Salmonella typhimurium, Strain/Indicator: TA1535, Metabolic Activation: Rat, liver, S-9, Aroclor 1254, 10 and 30%, Method: Preincubation inactive; negative

O=CN(O)c1ccc(Oc2ccc(Cl)cc2Cl)cc1
active: Test System: AMES SALMONELLA TYPHIMURIUM, Strain/Indicator: TA100, Metabolic Activation: RAT, LIVER, S-9, KANECLOR 500, Method: STANDARD PLATE active; positive
inactive: [2] inactive; negative
